Among the data in ChEMBL document CHEMBL1773045, “Conjugate (MTC-220) of muramyl dipeptide analogue and paclitaxel prevents both tumor growth and metastasis in mice” (J Med Chem, 2011) are inhibition in vivo, GI50 and Activity values, retold here.

The subject of data set [1] is MDA-MB-231. In words: Antitumor activity against human MDA-MB-231 cells xenografted in nu/nu BALB/c mouse assessed as tumor growth inhibition at 15 mg/kg, ip qd for 24 days measured on day 25 relative to control. The format is functional. The settings on record: MDA-MB-231, ip, route intraperitoneal, read-out: GI.
Data set [2] relates to A498. The data set can be described thus: Growth inhibition of human A498 cells after 48 hrs by sulforhodamine B assay. It counts as functional. Conditions: A498, 48 h.
The subject of data set [3] is BT-549. In words: Growth inhibition of human BT549 cells after 48 hrs by sulforhodamine B assay. It counts as functional. The settings on record: BT-549, 48 h.
The test system of data set [4] is Malme-3M. In words: Growth inhibition of human MALME-3M cells after 48 hrs by sulforhodamine B assay. It counts as functional.
In data set [5] the test system is RXF 393. The data set can be described thus: Growth inhibition of human RXF393 cells after 48 hrs by sulforhodamine B assay. The format is functional. The settings on record: RXF 393, 48 h.
Data set [6] has as its system Lewis lung carcinoma cell line. In words: Antitumor activity against mouse LLC cells xenografted in C57BL/6 mouse assessed as tumor growth inhibition at 10 mg/kg, ip qd for 15 days relative to control. The settings on record: 360 h, route intraperitoneal, read-out: GI. The format is functional.
The test system of data set [7] is Mus musculus. The data set can be described thus: Toxicity in human cancer cells xenografted in nu/nu BALB/c mouse assessed as side effects at 5 to 30 mg/kg, ip qd for 24 days. It counts as organism-based, Cancer cell lines. Set-up: dose 5-30 mg/kg, route intraperitoneal. Conditions: in vivo, 576 h.
For data set [8], the system named is SK-MEL-28. The data set can be described thus: Growth inhibition of human SK-MEL-28 cells after 48 hrs by sulforhodamine B assay. Conditions: SK-MEL-28, 48 h. It counts as functional.
Data set [9] deals with 786-0. In words: Growth inhibition of human 786-0 cells after 48 hrs by sulforhodamine B assay. The format is functional. The settings on record: 786-0, 48 h.
Data set [10] concerns SK-MEL-2. In words: Growth inhibition of human SK-MEL-2 cells after 48 hrs by sulforhodamine B assay. The format is functional. The settings on record: SK-MEL-2, 48 h.
Data set [11] deals with HeLa. The data set can be described thus: Cytotoxicity against human HeLa cells after 72 hrs by MTT assay. It counts as functional, cell-based.
For data set [12], the system named is HCT-116. The data set can be described thus: Growth inhibition of human HCT116 cells after 48 hrs by sulforhodamine B assay. It counts as functional. Conditions: HCT-116, 48 h.

The source made the active and inactive calls. No cut-off for these calls is given here. A value given as a limit tells only on which side of the number the result lay.

Consider `CC(=O)O[C@H]1C(=O)[C@@]2(C)[C@H]([C@H](OC(=O)c3ccccc3)[C@]3(O)C[C@H](OC(=O)[C@H](OC(=O)CCC(=O)NCCCC[C@H](NC(=O)CC[C@H](NC(=O)[C@H](C)NC(=O)/C=C/c4ccc(Cl)cc4)C(N)=O)C(N)=O)[C@H](NC(=O)c4ccccc4)c4ccccc4)C(C)=C1C3(C)C)[C@]1(OC(C)=O)CO[C@@H]1C[C@@H]2O`, for which the inhibition in vivo at 15 mg/kg in data set [1] was determined as 57.4%. The GI50 in data set [2], in data set [3], in data set [4], in data set [5], in data set [8] and in data set [9] was less than 10 nM in each case. The GI50 in data set [10] and in data set [12] was less than 10 nM each time. For the same compound, the inhibition in vivo at 10 mg/kg in [6] is 33.1%. Further, in [7], the Activity entry is listed as “Non-toxic”. Also, the outcome in data set [11] was Active.
